Read-outs that look alike come from different tables or passages of the source.
Legend:
[1] = In vitro skin diffusion across human epidermis in Franz-type diffusion cells; format: in vitro ADME
Protocol: Full thickness human skin samples from patients (26–48 years old females) undergoing abdominoplasty at Perth (WA, Australia) hospitals were refrigerated immediately after surgery. Sampling was approved by the Human Research Ethics Committee of Curtin University and was conducted in compliance with the guidelines of the National Health and Medical Research Council of Australia. Epidermal sheets were obtained and stored as previously described. […] Two hundred μL samples of the receptor phase were withdrawn and replaced with an equal volume of fresh pre-warmed (37°C) 25:75 PG:PBS over an 8 h period and the content analysed by HPLC. […] Permeability coefficients (cm/h) were calculated.

[2] = Uptake/retention in the epidermis by solvent extraction and HPLC after the permeation experiment; conditions: human epidermis
Protocol: Briefly, the skin sections were placed in 500 μL methanol and vortexed for 2 min, then transferred to a second 500 μL methanol volume and vortexed for another 2 min. The skin sample was then placed in 1 mL propylene glycol for 1 h with agitation. After centrifuging each extract at 10,000 × g for 10 min, the resultant supernatants were diluted appropriately, quantified by HPLC, and the data combined to give total penetrant in the epidermal section.
Mass balance/recovery after the skin permeation experiments was determined by removing and retaining the donor solution, and washing the epidermal surface, donor and receptor compartments and retaining all washing solutions. The content of all solutions was analysed by HPLC following suitable dilution.

COX-2 = target: T1, COX-2 (Homo sapiens, UniProt P35354); experiment: COX Fluorescent Inhibitor Screening Assay (COX-2 inhibition); format: biochemical; conditions: concentration range 0.000155–0.31 mM, 2 min incubation
T1 construct: purchased Cayman Chemical 700100
T1 sequence (P35354 18-604): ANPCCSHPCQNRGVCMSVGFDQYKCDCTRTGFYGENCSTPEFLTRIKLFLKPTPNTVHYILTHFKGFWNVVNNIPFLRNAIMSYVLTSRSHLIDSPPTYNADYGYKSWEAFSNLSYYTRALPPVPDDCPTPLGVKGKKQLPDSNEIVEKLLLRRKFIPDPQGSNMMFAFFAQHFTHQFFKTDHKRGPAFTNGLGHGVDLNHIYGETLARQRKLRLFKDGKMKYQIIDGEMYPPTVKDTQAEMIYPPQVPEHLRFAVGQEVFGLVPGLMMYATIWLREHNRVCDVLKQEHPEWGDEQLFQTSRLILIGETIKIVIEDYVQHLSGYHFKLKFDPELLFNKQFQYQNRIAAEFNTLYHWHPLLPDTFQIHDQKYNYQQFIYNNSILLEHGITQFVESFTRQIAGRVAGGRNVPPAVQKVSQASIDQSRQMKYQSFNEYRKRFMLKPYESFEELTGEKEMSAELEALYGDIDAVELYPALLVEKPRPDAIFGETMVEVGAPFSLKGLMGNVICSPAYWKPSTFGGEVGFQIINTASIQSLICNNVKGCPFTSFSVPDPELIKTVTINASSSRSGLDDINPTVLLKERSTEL

| steady state flux ([1]; human epidermis, 300 μL containing 150 μg diclofenac alone or as conjugate in 25:75 PG:PBS, 8 h) | Maximum amount permeated ([1]; human epidermis, applied dose 150 μg in 300 μL 25:75 PG:PBS, 8 h) | Amount permeated (% of applied dose) ([1]; human epidermis, applied dose 150 μg, 8 h) | Amount extracted from the skin (% of applied dose) ([2]; applied dose 150 μg) | Amount extracted (skin distribution) ([2]; applied dose 150 μg in 25:75 PG:PBS, after 8 h permeation experiment) | COX-2 inhibition (in words) (COX-2) | Compound | Amount permeated (% of applied dose) [1] | Maximum amount permeated [1] |
| --- | --- | --- | --- | --- | --- | --- | --- | --- |
| – | – | – | – | – | – | CN1C(=O)[C@H](Cc2ccc(NC(=O)Cc3ccccc3Nc3c(Cl)cccc3Cl)cc2)NC(=O)[C@@H]1Cc1ccc2ccccc2c1 [DKP-diclofenac conjugate, DKP Phe(Diclofenac)-N-MeNal] | 4.00 % of applied dose | 6.01(±0.16) μg/cm^2 |
| 0.12 μg/cm^2/h | 0.91(±0.15) μg/cm^2 | 0.60 % of applied dose | 5.72 % of applied dose | 8.58(±1.50) μg | – | O=C(O)Cc1ccccc1Nc1c(Cl)cccc1Cl [Diclofenac, Diclofenac sodium] | – | – |
| – | – | – | – | – | did not demonstrate COX-2 inhibition | DKP Phe-N-MeNal | 4.33 % of applied dose | 6.50(±1.94) μg/cm^2 |

From publication PMC4993479 (PLoS ONE, 2016)
